From ChEMBL document CHEMBL5385949, “Transient Receptor Potential Melastatin 7 (TRPM7) Ion Channel Inhibitors: Preliminary SAR and Conformational Studies of Xenicane Diterpenoids from the Hawaiian Soft Coral Sarcothelia edmondsoni” (J Nat Prod, 2024)
Each block holds one compound with its values, some of them ahead of it. The source made the active and inactive calls. The calls are words filed in the database; no cut-off is given here.

Legend:
[1] = target: T1, Transient receptor potential cation channel subfamily M member 7 (Mus musculus, UniProt Q923J1); format: cell-based, HEK293
Description: Inhibition of FLAG-tagged mouse TRPM7 transfected in HEK293 cells assessed as inhibition of channel-mediated Mn2+ influx incubated for ~15 mins and measured for 90 secs by Fura-2-dye based fluorescence analysis

[2] = target: T1, Transient receptor potential cation channel subfamily M member 7; test: Inhibition of mouse TRPM7 transfected in HEK293T cells assessed as inhibition of channel current in absence of intracellular Mg2+ by whole cell patch clamp analysis; format: cell-based
[3] = target: T2, Transient receptor potential cation channel subfamily M member 7 (Homo sapiens, UniProt Q96QT4); test: Irreversible covalent inhibition of human TRPM7 transfected in Tet-inducible HEK293-T-REx cells assessed as inhibition of channel current at 10 uM incubated for 50 to 150 secs and measured for 10 mins after drug wash-out by whole cell patch clamp analysis; format: cell-based; conditions: time 50-150 sec
[4] = target: T1, Transient receptor potential cation channel subfamily M member 7; test: Inhibition of mouse TRPM7 expressed in HEK293 cells assessed as inhibition of channel current in presence of 700 uM intracellular Mg2+ by whole cell patch clamp analysis; format: cell-based
[5] = 1-Octanol/water partition coefficient, log P of the compound by LC-MS analysis; format: physicochemical
[6] = target: T2, Transient receptor potential cation channel subfamily M member 7; test: Covalent inhibition of human TRPM7 transfected in Tet-inducible HEK293-T-REx cells assessed as inhibition of channel current at 10 uM incubated for 50 to 150 secs by whole cell patch clamp analysis; format: cell-based; conditions: time 50-150 sec
[7] = target: T1, Transient receptor potential cation channel subfamily M member 7; test: Inhibition of mouse TRPM7 transfected in HEK293 cells assessed as inhibition of channel current in presence of 300 uM free intracellular Mg2+ by whole cell patch clamp analysis; format: cell-based
[8] = target: T1, Transient receptor potential cation channel subfamily M member 7; test: Inhibition of mouse TRPM7 transfected in HEK293 cells assessed as inhibition of channel current in presence of 780 uM free intracellular Mg2+ by whole cell patch clamp analysis; format: cell-based
[9] = target: T1, Transient receptor potential cation channel subfamily M member 7; test: Inhibition of mouse TRPM7 transfected in HEK293 cells assessed as inhibition of channel current in absence of intracellular Mg2+ by whole cell patch clamp analysis; format: cell-based
[10] = target: T1, Transient receptor potential cation channel subfamily M member 7; test: Inhibition of HA-tagged mouse TRPM7 transfected in HEK293 cells assessed as inhibition of channel current by whole cell patch clamp analysis; format: cell-based
[11] = target: T2, Transient receptor potential cation channel subfamily M member 7; test: Inhibition of human TRPM7 transfected in Tet-inducible HEK293-T-REx cells assessed as inhibition of channel current in presence of 780 uM intracellular Mg2+ by whole cell patch clamp analysis; format: cell-based
[12] = target: T2, Transient receptor potential cation channel subfamily M member 7; test: Inhibition of human TRPM7 transfected in HEK293 cells assessed as inhibition of channel current by whole cell patch clamp analysis; format: cell-based

T2 sequence (Q96QT4 whole entry): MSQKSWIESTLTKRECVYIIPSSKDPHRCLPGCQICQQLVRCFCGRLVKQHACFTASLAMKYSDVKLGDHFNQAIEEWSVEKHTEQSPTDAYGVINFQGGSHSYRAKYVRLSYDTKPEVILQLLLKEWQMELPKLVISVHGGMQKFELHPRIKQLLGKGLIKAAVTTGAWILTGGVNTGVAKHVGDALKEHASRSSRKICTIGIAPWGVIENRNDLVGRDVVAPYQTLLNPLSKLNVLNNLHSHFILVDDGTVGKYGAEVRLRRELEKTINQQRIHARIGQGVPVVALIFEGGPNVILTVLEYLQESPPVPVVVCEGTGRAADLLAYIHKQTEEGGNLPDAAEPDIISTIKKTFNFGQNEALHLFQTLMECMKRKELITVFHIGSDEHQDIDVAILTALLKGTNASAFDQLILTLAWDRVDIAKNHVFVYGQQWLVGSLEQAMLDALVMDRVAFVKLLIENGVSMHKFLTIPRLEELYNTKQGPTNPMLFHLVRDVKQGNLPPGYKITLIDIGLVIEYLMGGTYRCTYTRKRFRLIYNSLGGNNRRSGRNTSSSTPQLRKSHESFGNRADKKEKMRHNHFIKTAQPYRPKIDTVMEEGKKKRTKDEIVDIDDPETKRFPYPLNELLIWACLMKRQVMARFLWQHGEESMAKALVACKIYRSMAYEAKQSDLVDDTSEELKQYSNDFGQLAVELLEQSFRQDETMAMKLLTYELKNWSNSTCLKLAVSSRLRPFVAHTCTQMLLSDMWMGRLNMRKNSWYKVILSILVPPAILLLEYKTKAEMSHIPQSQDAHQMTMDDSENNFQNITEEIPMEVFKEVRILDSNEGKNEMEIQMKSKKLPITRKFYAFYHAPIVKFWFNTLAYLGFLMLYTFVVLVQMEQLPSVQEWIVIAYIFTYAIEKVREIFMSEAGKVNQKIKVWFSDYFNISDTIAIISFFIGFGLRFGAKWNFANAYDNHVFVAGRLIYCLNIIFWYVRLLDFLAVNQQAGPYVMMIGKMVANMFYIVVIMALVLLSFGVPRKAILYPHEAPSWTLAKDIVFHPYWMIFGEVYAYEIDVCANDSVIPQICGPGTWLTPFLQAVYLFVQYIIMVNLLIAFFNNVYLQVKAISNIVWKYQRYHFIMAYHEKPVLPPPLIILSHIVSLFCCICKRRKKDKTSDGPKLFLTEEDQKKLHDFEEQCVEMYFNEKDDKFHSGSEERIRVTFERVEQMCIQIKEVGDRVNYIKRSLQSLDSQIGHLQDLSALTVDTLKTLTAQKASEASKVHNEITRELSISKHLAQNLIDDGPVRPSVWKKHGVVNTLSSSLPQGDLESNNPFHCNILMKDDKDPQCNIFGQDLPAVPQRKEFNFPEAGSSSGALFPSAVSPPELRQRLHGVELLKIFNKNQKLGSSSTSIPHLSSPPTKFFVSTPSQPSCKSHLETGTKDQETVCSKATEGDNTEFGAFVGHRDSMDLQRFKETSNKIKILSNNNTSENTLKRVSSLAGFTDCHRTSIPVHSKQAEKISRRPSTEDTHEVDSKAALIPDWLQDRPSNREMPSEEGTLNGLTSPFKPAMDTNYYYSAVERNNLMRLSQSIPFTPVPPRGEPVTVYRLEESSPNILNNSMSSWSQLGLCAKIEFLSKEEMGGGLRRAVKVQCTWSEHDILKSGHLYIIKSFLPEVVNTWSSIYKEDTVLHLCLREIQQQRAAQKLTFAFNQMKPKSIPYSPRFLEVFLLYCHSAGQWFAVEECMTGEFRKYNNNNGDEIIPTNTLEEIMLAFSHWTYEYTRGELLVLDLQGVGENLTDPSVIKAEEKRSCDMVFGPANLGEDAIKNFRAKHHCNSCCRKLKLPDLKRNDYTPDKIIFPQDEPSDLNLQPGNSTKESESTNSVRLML
T1 sequence (Q923J1 whole entry): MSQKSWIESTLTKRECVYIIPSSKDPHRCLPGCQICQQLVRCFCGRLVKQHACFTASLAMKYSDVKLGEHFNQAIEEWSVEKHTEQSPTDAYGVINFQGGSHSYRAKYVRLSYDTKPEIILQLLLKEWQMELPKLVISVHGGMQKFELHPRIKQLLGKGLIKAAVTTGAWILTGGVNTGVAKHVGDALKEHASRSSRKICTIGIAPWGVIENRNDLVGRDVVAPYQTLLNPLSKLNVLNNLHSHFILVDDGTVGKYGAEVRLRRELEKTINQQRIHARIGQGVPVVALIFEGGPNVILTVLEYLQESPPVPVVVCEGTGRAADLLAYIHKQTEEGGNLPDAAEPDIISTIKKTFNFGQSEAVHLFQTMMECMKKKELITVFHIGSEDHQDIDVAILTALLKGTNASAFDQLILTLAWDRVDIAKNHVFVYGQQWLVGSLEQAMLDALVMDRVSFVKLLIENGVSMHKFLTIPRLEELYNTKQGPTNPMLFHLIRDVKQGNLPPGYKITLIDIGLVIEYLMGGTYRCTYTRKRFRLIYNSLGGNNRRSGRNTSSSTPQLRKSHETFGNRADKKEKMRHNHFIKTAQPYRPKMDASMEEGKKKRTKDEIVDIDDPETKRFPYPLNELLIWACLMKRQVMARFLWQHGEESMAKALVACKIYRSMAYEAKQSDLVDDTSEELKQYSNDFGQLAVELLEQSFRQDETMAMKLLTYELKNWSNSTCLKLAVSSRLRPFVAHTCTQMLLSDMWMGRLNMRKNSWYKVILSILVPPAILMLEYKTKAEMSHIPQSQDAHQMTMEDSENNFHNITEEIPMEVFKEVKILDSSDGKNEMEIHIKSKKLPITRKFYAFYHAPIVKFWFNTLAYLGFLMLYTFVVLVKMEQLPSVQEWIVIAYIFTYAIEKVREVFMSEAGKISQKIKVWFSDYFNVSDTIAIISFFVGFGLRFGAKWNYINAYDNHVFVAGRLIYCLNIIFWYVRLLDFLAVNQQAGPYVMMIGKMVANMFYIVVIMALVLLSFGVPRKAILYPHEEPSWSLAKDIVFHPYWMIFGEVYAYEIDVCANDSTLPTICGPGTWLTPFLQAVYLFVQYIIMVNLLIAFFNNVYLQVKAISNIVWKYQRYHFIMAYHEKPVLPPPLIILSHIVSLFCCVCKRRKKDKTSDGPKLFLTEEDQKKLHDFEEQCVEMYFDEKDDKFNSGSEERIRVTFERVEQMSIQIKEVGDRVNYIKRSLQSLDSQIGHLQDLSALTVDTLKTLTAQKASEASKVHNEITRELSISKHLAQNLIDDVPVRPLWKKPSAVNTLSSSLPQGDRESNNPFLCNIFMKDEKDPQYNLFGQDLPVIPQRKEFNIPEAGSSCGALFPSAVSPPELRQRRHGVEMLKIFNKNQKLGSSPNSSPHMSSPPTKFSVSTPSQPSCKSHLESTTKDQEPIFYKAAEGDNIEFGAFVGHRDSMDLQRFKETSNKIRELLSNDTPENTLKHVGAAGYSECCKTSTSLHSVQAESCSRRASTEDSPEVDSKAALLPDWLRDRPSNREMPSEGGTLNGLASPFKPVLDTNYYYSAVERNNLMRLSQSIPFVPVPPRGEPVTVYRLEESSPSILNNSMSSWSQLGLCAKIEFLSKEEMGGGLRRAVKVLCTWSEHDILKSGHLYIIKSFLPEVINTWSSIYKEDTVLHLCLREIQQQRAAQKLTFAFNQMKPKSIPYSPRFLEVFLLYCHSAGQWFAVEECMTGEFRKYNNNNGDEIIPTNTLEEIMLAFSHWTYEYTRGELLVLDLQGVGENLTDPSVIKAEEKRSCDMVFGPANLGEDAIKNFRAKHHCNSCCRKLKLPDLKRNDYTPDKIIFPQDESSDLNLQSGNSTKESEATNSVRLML

IC50 [1]: 33 µM
SMILES: C=C1CC[C@@H]2O[C@@]2(C)CC[C@@H]2C([C@H](C/C=C(\C)COC(C)=O)OC(C)=O)=CO[C@H](OC(C)=O)[C@@H]12

IC50 [2]: 0.11 µM
SMILES: N#Cc1ccc(COC[C@H]2O[C@@H](n3c(NCc4ccc(Cl)c(Cl)c4)nc4c(N)ncnc43)[C@H](O)[C@@H]2O)cc1

inhibition [3]: Active
IC50 [4]: 0.016 µM
IC50 [1]: 20 µM
logP [5]: 3.8
inhibition [6]: Active
SMILES: C=C1CC/C=C(\C)CC[C@@H]2C([C@H](C/C=C(\C)COC(C)=O)OC(C)=O)=CO[C@H](OC(C)=O)[C@@H]12

SMILES: NCCOB(c1ccccc1)c1ccccc1
IC50 [1]: 22 µM

IC50 [7]: 5.9 µM
IC50 [8]: 3.9 µM
IC50 [9]: 1.6 µM
SMILES: c1ccc2c(c1)CCC[C@H]2Nc1nc2ccccc2[nH]1

IC50 [1]: 20 µM
SMILES: C=C1CC[C@H](OC(C)=O)C(=C)CC[C@@H]2C([C@H](C/C=C(\C)COC(C)=O)OC(C)=O)=CO[C@H](OC(C)=O)[C@@H]12

IC50 [1]: 13 µM
SMILES: C=C1[C@@H]2[C@@H](OC(C)=O)OC=C([C@H](C/C=C(\C)COC(C)=O)OC(C)=O)[C@H]2CC[C@]2(C)O[C@H]2C[C@H]1O

IC50 [1]: > 150 µM
SMILES: C=C1CC/C=C(\C)CC[C@H]2[C@H]1[C@H]1O[C@H](O)[C@]2(/C=C/C=C(\C)COC(C)=O)O1

IC50 [1]: > 150 µM
SMILES: C=C1CC[C@@H]2O[C@@]2(C)CC[C@@H]2C(C=O)=C[C@@H](/C=C(\C)COC(C)=O)[C@H](O)[C@@H]12

IC50 [10]: 0.72 µM
SMILES: CCCCCCCCc1ccc(CCC(N)(CO)CO)cc1 [FINGOLIMOD]

IC50 [1]: 12 µM
IC50 [11]: 0.09 µM
SMILES: C=C1[C@@H]2[C@@H](OC(C)=O)OC=C([C@H](C/C=C(\C)COC(C)=O)OC(C)=O)[C@H]2CC/C(C)=C/C[C@H]1O

SMILES: CCCCCc1cc(O)c(C/C=C(\C)CCC=C(C)C)c(O)c1C(=O)O [CANNABIGEROLIC ACID]
IC50 [12]: 2.7 µM

IC50 [1]: > 130 µM
SMILES: C=C1CC/C=C(\C)CC[C@@H]2C([C@@H](O)C/C=C(\C)COC(C)=O)=CO[C@H](OC(C)=O)[C@@H]12
